The values below come from patent EP0526258A2, “A87689 Compounds, their production and use as phospholipase-A2 inhibitors” (ELI LILLY AND COMPANY, priority 1991, dated 1993).

This experiment concerns lipoidalamine-induced arthritis. Nature of the experiment: Lipoidalamine-induced arthritis model. The class given is in vivo. The conditions noted are these: rat, positive control, 0.1 mg/kg orally. The source says:
The lipoidalamine-induced arthritis test is a model of systemic inflammation and arthritis induced by the adjuvant substance N, N-dioctadecyl-N′,N′-bis(2-hydroxyethyl)propanediamine (LA) suspended in mineral oil. The disease that results is very similar to that occurring in Freund's complete adjuvant (FCA) treated rats according to Chang [Chang, Y., Pearson, C. M., and Abe, C., "Adjuvant polyarthritis IV. Induction by a synthetic adjuvant: immunologic, histopathologic, and other studies," Arth. Rheum.23: 62-71, (1980)]. Inflammation occurs in many tissues but is most striking in the spleen and joints. Compounds are tested for their ability to modulate splenic and joint inflammation in established disease (treatment starts on day 9).
The animals (Lewis/Sprague Dawley, males, 200-220 grams) are divided into groups of 5 and housed in hanging cages with food and water ad libitum. On day 0 they are injected with 7.5 mg of LA subcutaneously at the base of the tail. On day 9 the animals are weighed and compound administration is started. The compounds are suspended, using a tissue homogenizer, in a 1% CMC solution. The screening dose is 50 mg/kg orally. Compounds are administered once daily for 5 days (days 9-13) with no dosing on day 14. On day 15 the animals are weighed again and hind paw volume measured using a water manometer. The animals are then anesthetized and bled via cardiac puncture. After the animals are euthanized, the spleen is removed and weighed and the hind feet are removed just above the ankle joint and weighed. The individual blood samples are analyzed for fibrinogen. Means and standard errors for all of these parameters are then calculated, and percent differences from the diseased (LA) control are figured. Statistical significance is determined utilizing the Dunnet T calculation on the raw data. The positive control for the LA arthritis test is dexamethasone. Dexamethasone at a dose of 0.1 mg/kg orally will inhibit paw swelling by 80-90% and spleen weight by 90-100%. […]

Consider `C[C@@H]1C[C@H]2[C@@H]3CCC4=CC(=O)C=C[C@]4(C)[C@@]3(F)[C@@H](O)C[C@]2(C)[C@@]1(O)C(=O)CO` [Dexamethasone, dexamethasone], for which the inhibit paw swelling was 80-90% and the inhibit spleen weight is 90-100%. In addition, the fibrinogen inhibited (more variable) was 50-70%.
